± gives the expanded uncertainty stated by the source.
Tests used:
[1] = for surface tension liquid-gas: Plate tensiometer; for mass density: 101.33 kPa, Liquid, Vibrating tube method
[2] = xn = mol fraction of the nth substance listed; conditions: 293.15 K; for mass density: 101 kPa, Liquid, Vibrating tube method

CCn1cc[n+](C)c1.COS(=O)(=O)[O-] [1-ethyl-3-methylimidazolium methylsulfate]
[1]
Conditions	mass density [kg/m3]	surface tension liquid-gas [mN/m]
283.15 K	1273.4 ± 20	53.54 ± 0.27
288.15 K	1270.1 ± 20	53.28 ± 0.27
293.15 K	1267 ± 20	52.99 ± 0.27
298.15 K	1262.9 ± 20	52.62 ± 0.26
303.15 K	1259.4 ± 20	52.32 ± 0.26
308.15 K	1255.8 ± 20	52.03 ± 0.26
313.15 K	1252.9 ± 20	51.72 ± 0.26
318.15 K	1249.9 ± 20	51.44 ± 0.26
323.15 K	1246.9 ± 20	51.07 ± 0.26
328.15 K	1243.5 ± 20	50.68 ± 0.25
333.15 K	1240.3 ± 20	50.41 ± 0.25

CCn1cc[n+](C)c1.COS(=O)(=O)[O-] [1-ethyl-3-methylimidazolium methylsulfate] + CCCCO
[2], Ring tensiometer
Conditions	surface tension liquid-gas [mN/m]
x1 = 0.032	23.96 ± 0.02
x1 = 0.071	24.3 ± 0.1
x1 = 0.1	24.39 ± 0.02
x1 = 0.2306	25.51 ± 0.04
x1 = 0.3	26.11 ± 0.05
x1 = 0.3996	27.13 ± 0.06
x1 = 0.4989	28.16 ± 0.08
x1 = 0.5993	28.58 ± 0.09
x1 = 0.695	28.61 ± 0.1
x1 = 0.7864	33.18 ± 0.13
x1 = 0.9206	39.12 ± 0.18
x1 = 0.9628	43.21 ± 0.21
x1 = 1	52.62 ± 0.26

[2]
Conditions	mass density [kg/m3]
x1 = 0.032	837.1 ± 20
x1 = 0.071	868.3 ± 20
x1 = 0.1	890.3 ± 20
x1 = 0.2306	978.5 ± 20
x1 = 0.3	1017.9 ± 20
x1 = 0.3996	1066.8 ± 20
x1 = 0.4989	1109.3 ± 20
x1 = 0.5993	1147.1 ± 20
x1 = 0.695	1179.6 ± 20
x1 = 0.7864	1207.2 ± 20
x1 = 0.9206	1243.6 ± 20
x1 = 1	1262.9 ± 20

CCn1cc[n+](C)c1.COS(=O)(=O)[O-] [1-ethyl-3-methylimidazolium methylsulfate] + CCO
[2], Plate tensiometer
Conditions	surface tension liquid-gas [mN/m]
x1 = 0.04	22.75 ± 0.06
x1 = 0.0597	23.23 ± 0.06
x1 = 0.08	23.62 ± 0.06
x1 = 0.0999	24.08 ± 0.07
x1 = 0.2	26.08 ± 0.08
x1 = 0.3	28.59 ± 0.09
x1 = 0.4	30.09 ± 0.11
x1 = 0.5	32.19 ± 0.12
x1 = 0.5998	34.22 ± 0.14
x1 = 0.6993	38.92 ± 0.17
x1 = 0.8005	44.18 ± 0.2
x1 = 0.9009	49.23 ± 0.23
x1 = 1	52.62 ± 0.26

[2]
Conditions	mass density [kg/m3]
x1 = 0.04	839.3 ± 20
x1 = 0.0597	862.9 ± 20
x1 = 0.08	885.6 ± 20
x1 = 0.0999	906.5 ± 20
x1 = 0.2	995.1 ± 20
x1 = 0.3	1064.8 ± 20
x1 = 0.4	1113.2 ± 20
x1 = 0.5	1150.2 ± 20
x1 = 0.5998	1179.8 ± 20
x1 = 0.6993	1205.1 ± 20
x1 = 0.8005	1227.1 ± 20
x1 = 0.9009	1246.4 ± 20
x1 = 1	1262.9 ± 20

CCn1cc[n+](C)c1.COS(=O)(=O)[O-] [1-ethyl-3-methylimidazolium methylsulfate] + CO
[2], Plate tensiometer
Conditions	surface tension liquid-gas [mN/m]
x1 = 0.05	24.19 ± 0.06
x1 = 0.08	25.56 ± 0.07
x1 = 0.0995	26.19 ± 0.07
x1 = 0.2001	30.12 ± 0.09
x1 = 0.3024	33.16 ± 0.11
x1 = 0.4012	37.21 ± 0.13
x1 = 0.4971	40.02 ± 0.15
x1 = 0.6	43.02 ± 0.17
x1 = 0.7004	45.59 ± 0.19
x1 = 0.8003	48.06 ± 0.22
x1 = 0.8971	50.63 ± 0.24
x1 = 0.9389	51.59 ± 0.25
x1 = 1	52.62 ± 0.26

[2]
Conditions	mass density [kg/m3]
x1 = 0.05	883.8 ± 20
x1 = 0.08	928.9 ± 20
x1 = 0.0995	957.2 ± 20
x1 = 0.2001	1061.5 ± 20
x1 = 0.3024	1122.2 ± 20
x1 = 0.4012	1161.3 ± 20
x1 = 0.4971	1189.3 ± 20
x1 = 0.6	1212.1 ± 20
x1 = 0.7004	1228 ± 20
x1 = 0.8003	1242.3 ± 20
x1 = 0.8971	1252.6 ± 20
x1 = 0.9389	1256.7 ± 20
x1 = 1	1262.9 ± 20

CCCCO [butan-1-ol] + CCn1cc[n+](C)c1.COS(=O)(=O)[O-]
Conditions	surface tension liquid-gas [mN/m]
[2], Ring tensiometer, x2 = 0	23.62 ± 0.01

Conditions	mass density [kg/m3]
[2], x2 = 0	809.6 ± 20

CCO [ethanol] + CCn1cc[n+](C)c1.COS(=O)(=O)[O-]
Conditions	surface tension liquid-gas [mN/m]
[2], Plate tensiometer, x2 = 0	22 ± 1

Conditions	mass density [kg/m3]
[2], x2 = 0	785.7 ± 20

CO [methanol] + CCn1cc[n+](C)c1.COS(=O)(=O)[O-]
Conditions	surface tension liquid-gas [mN/m]
[2], Plate tensiometer, x2 = 0	21.8 ± 0.1

Conditions	mass density [kg/m3]
[2], x2 = 0	791.2 ± 20
